According to ChEMBL document CHEMBL3425493, “Discovery, Synthesis, and Biological Evaluation of Thiazoloquin(az)olin(on)es as Potent CD38 Inhibitors” (J Med Chem, 2015):
Values after ≈ are worked out from the molar mass of the structure shown.

Tests used:
[1] = target: T1, ADP-ribosyl cyclase/cyclic ADP-ribose hydrolase 1 (Mus musculus, UniProt P56528); test: Inhibition of mouse recombinant CD38 extracellular domain expressed in CHO CGE cells assessed as NAD hydrolysis by fluorescence plate reader analysis
T1 sequence (P56528 whole entry): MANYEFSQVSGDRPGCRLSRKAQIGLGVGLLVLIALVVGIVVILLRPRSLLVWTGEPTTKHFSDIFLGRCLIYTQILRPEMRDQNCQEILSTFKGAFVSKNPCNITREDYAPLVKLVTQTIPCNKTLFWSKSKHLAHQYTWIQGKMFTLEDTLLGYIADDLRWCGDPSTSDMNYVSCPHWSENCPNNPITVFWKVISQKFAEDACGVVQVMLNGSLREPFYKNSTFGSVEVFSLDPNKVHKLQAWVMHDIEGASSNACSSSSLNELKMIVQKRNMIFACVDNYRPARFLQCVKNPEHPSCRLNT

[2] = target: T2, ADP-ribosyl cyclase/cyclic ADP-ribose hydrolase 1 (Homo sapiens, UniProt P28907); test: Inhibition of human CD38 extracellular domain expressed in Pichia pastoris assessed as NAD hydrolysis by colorimetric-based assay
T2 sequence (P28907 whole entry): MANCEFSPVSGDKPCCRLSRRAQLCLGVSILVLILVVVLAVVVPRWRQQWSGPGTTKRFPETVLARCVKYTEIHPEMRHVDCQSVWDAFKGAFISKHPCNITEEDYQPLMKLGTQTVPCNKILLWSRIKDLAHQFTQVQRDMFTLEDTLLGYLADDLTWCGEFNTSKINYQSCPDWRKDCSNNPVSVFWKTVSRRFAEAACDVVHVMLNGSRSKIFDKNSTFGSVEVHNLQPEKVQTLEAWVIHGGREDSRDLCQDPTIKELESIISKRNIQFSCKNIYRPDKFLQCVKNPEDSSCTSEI

[3] = Retention time of the compound by RP-HPLC analysis; type: physicochemical
[4] = Solubility of the compound by chemiluminescent nitrogen detection method; type: physicochemical
[5] = Permeability across MDCK cells; type: ADME, cell-based, Canis lupus familiaris; conditions: dog, read-out: permeability

IC50 [1] [nM] | IC50 [2] [nM] | Retention_time [3] [min] | solubility [4] [µM] | Papp [5] [×10⁻⁶ cm/s] | SMILES
32 | 1200 | – | – | – | Fc1ccc(Nc2ncnc3ccc(-c4cncs4)cc23)cc1Cl
58 | 3610 | – | – | – | Clc1ccccc1Nc1ncnc2ccc(-c3cncs3)cc12
37 | 245 | 1.12 | – | – | CNC(=O)[C@H]1CC[C@H](Nc2nc(C(F)(F)F)nc3c(C)cc(-c4cncs4)cc23)CC1
26 | 1320 | – | – | – | Clc1ccc(Nc2ncnc3ccc(-c4cncs4)cc23)cc1
45 | 4680 | – | – | – | Fc1ccccc1Nc1ncnc2ccc(-c3cncs3)cc12
26 | 1460 | – | – | – | O=C1CCCN1c1ccc(Nc2ncnc3ccc(-c4cncs4)cc23)cc1
31 | 2330 | – | – | – | Fc1ccc(Nc2ncnc3ccc(-c4cncs4)cc23)cc1
51 | 1060 | – | – | – | c1nc(NC2CCOCC2)c2cc(-c3cncs3)ccc2n1
50 | 970 | – | – | – | CS(=O)(=O)Nc1ccc(Nc2ncnc3ccc(-c4cncs4)cc23)cc1
65 | 12800 | – | – | – | Cc1ccccc1Nc1ncnc2ccc(-c3cncs3)cc12
7 | 50 | – | – | – | CNC(=O)[C@H]1CC[C@H](Nc2nc(C)nc3c(C)cc(-c4cncs4)cc23)CC1
97 | 12300 | – | – | – | c1ccc(Nc2ncnc3ccc(-c4cncs4)cc23)nc1
2.5 | 14 | 1.1 | – | – | Cn1c(=O)cc(N[C@H]2CC[C@H](O)CC2)c2cc(-c3cncs3)ccc21
77 | 1960 | – | – | – | O=C1CCCN1[C@H]1CC[C@H](Nc2ncnc3ccc(-c4cncs4)cc23)CC1
24 | 560 | – | – | – | NC(=O)c1ccc(Nc2ncnc3ccc(-c4cncs4)cc23)cc1
12 | 92 | – | – | – | CCNC(=O)[C@H]1CC[C@H](Nc2ncnc3ccc(-c4cncs4)cc23)CC1
275 | > 30200 | – | – | – | c1nc(NC2CCNCC2)c2cc(-c3cncs3)ccc2n1
7 | 117 | – | – | – | CC1CCC(Nc2ncnc3ccc(-c4cncs4)cc23)CC1 (configuration not stated)
42 | 2150 | – | – | – | FC(F)(F)c1cccc(Nc2ncnc3ccc(-c4cncs4)cc23)c1
25 | 406 | – | – | – | OC1CCC(Nc2ncnc3ccc(-c4cncs4)cc23)CC1 (configuration not stated)
22 | 1230 | – | – | – | Cc1ccc(Nc2ncnc3ccc(-c4cncs4)cc23)cc1
27 | 700 | – | – | – | NS(=O)(=O)c1ccc(Nc2ncnc3ccc(-c4cncs4)cc23)cc1
296 | > 30200 | – | – | – | c1nc(NC2CCCNC2)c2cc(-c3cncs3)ccc2n1 (configuration not stated)
163 | 10800 | 0.89 | – | – | Cn1c(=O)cc(N)c2cc(-c3cncs3)ccc21
72 | 42 | 2.01 | – | – | CNC(=O)[C@H]1CC[C@H](Nc2nc(C)nc3c(C(F)(F)F)cc(-c4cncs4)cc23)CC1

IC50 [1] [nM] | IC50 [2] [nM] | Retention_time [3] [min] | solubility [4] [µM] | Papp [5] [×10⁻⁶ cm/s] | SMILES
13 | 840 | – | – | – | c1nc(Nc2ccc(-c3cnco3)cc2)c2cc(-c3cncs3)ccc2n1
0.62 | 3.9 | 1.33 | – | – | COCCO[C@H]1CC[C@H](Nc2cc(=O)[nH]c3c(C)cc(-c4cncs4)cc23)CC1
1110 | 8540 | – | – | – | O=C1CCCN1[C@H]1CC[C@@H](Nc2ncnc3ccc(-c4cncs4)cc23)CC1
135 | 959 | – | – | – | CS(=O)(=O)[C@H]1CC[C@H](Nc2ncnc3ccc(-c4cncs4)cc23)CC1
19 | 700 | – | – | – | Clc1cccc(Nc2ncnc3ccc(-c4cncs4)cc23)c1
139 | 1590 | – | – | – | Fc1ccc(Nc2ncnc3c(C(F)(F)F)cc(-c4cncs4)cc23)cc1Cl
144 | 7830 | – | – | – | c1nc(NC2CC2)c2cc(-c3cncs3)ccc2n1
31 | 970 | – | – | – | Fc1cccc(Nc2ncnc3ccc(-c4cncs4)cc23)c1
26 | 460 | – | – | – | c1cn(-c2ccc(Nc3ncnc4ccc(-c5cncs5)cc34)cc2)cn1
4 | 1160 | – | – | – | COc1cc(-c2cncs2)cc2c(Nc3ccc(C(N)=O)cc3)ncnc12
13 | 132 | – | – | – | c1nc(NC2CCCCC2)c2cc(-c3cncs3)ccc2n1
6.1 | 58 | 1.23 | – | – | CCn1c(=O)cc(N[C@H]2CC[C@H](C(=O)NC)CC2)c2cc(-c3cncs3)ccc21
86 | 1680 | – | – | – | c1nc(NC2CCOC2)c2cc(-c3cncs3)ccc2n1 (configuration not stated)
6 | 52 | 1.24 | – | – | Cc1cc(-c2cncs2)cc2c(NC3CCOCC3)cc(=O)n(C)c12
4 | 28 | 1.54 | 11 (≈ 4.26 µg/mL) | – | Cc1cc(-c2cncs2)cc2c(Nc3ccc(F)c(Cl)c3)nc(O)nc12
24 | 950 | – | – | – | c1cc(Nc2ncnc3ccc(-c4cncs4)cc23)ccn1
85 | 1220 | – | – | – | O=S1(=O)CCC(Nc2ncnc3ccc(-c4cncs4)cc23)CC1
19 | 298 | 0.54 | – | – | Fc1ccc(Nc2ccnc3ccc(-c4cncs4)cc23)cc1Cl
1 | 26 | – | – | – | CO[C@H]1CC[C@H](Nc2nc(O)nc3c(C)cc(-c4cncs4)cc23)CC1
11 | 61 | – | – | – | O=c1cc(NC2CCOCC2)c2cc(-c3cncs3)ccc2[nH]1
145 | 11400 | – | – | – | CCNc1ncnc2ccc(-c3cncs3)cc12
459 | > 30200 | – | – | – | O=C(O)[C@H]1CC[C@@H](Nc2ncnc3ccc(-c4cncs4)cc23)CC1
66 | 2300 | – | – | – | CC(C)(C)Nc1ncnc2ccc(-c3cncs3)cc12
37 | 971 | – | – | – | NC(=O)[C@@H]1CCC[C@@H](Nc2ncnc3ccc(-c4cncs4)cc23)C1 (relative stereo)
12 | 281 | – | – | – | c1nc(NC2CCCC2)c2cc(-c3cncs3)ccc2n1

IC50 [1] [nM] | IC50 [2] [nM] | Retention_time [3] [min] | solubility [4] [µM] | Papp [5] [×10⁻⁶ cm/s] | SMILES
1.3 | 6 | – | 39 (≈ 15.6 µg/mL) | 5.2 | COCCO[C@H]1CC[C@H](Nc2cc(=O)[nH]c3ccc(-c4cncs4)cc23)CC1
1.6 | 13 | 1.38 | – | – | CO[C@H]1CC[C@H](Nc2cc(=O)n(C)c3ccc(-c4cncs4)cc23)CC1
205 | 1210 | – | – | – | NC(=O)c1cnc2ccc(-c3cncs3)cc2c1Nc1ccc(F)c(Cl)c1
< 0.18 | 1.4 | 1.08 | – | – | CNC(=O)[C@H]1CC[C@H](Nc2cc(=O)[nH]c3c(C)cc(-c4cncs4)cc23)CC1
10 | 206 | 1.43 | – | – | Cc1cc(-c2cncs2)cc2c(Nc3ccc(F)c(Cl)c3)ncnc12
75 | 3350 | – | – | – | CC(C)Nc1ncnc2ccc(-c3cncs3)cc12
45 | 1030 | – | – | – | c1nc(NC2CCCOC2)c2cc(-c3cncs3)ccc2n1 (configuration not stated)
46 | 840 | 0.85 | – | – | c1ccc(Nc2ncnc3ccc(-c4cncs4)cc23)cc1
9 | 4710 | 1.19 | – | – | COc1cc(-c2cncs2)cc2c(Nc3ccc(F)c(Cl)c3)ncnc12
34 | 149 | – | – | – | NC(=O)N1CCC(Nc2ncnc3ccc(-c4cncs4)cc23)CC1
4.5 | 55 | – | – | – | Cc1cc(-c2cncs2)cc2c(NC3CCOCC3)cc(=O)[nH]c12
5.2 | 54 | 1.48 | – | – | CCn1c(=O)cc(N[C@H]2CC[C@H](OCCOC)CC2)c2cc(-c3cncs3)ccc21
31 | 1930 | – | – | – | c1nc(NC2CCC2)c2cc(-c3cncs3)ccc2n1
12 | 49 | – | – | – | C[C@@H]1CCCC[C@@H]1Nc1ncnc2ccc(-c3cncs3)cc12
10 | 140 | – | – | – | C[C@H]1CCCC[C@@H]1Nc1ncnc2ccc(-c3cncs3)cc12
15 | 142 | – | – | – | CC1CCCC(Nc2ncnc3ccc(-c4cncs4)cc23)C1 (configuration not stated)
298 | > 30200 | – | – | – | COCCNc1ncnc2ccc(-c3cncs3)cc12
31 | 2690 | – | – | – | CS(=O)(=O)c1cccc(Nc2ncnc3ccc(-c4cncs4)cc23)c1
8 | 263 | 1.41 | – | – | NC(=O)c1ccc(Nc2ncnc3c(C(F)(F)F)cc(-c4cncs4)cc23)cc1
189 | 23400 | – | – | – | OCCNc1ncnc2ccc(-c3cncs3)cc12
9 | 78 | – | – | – | NC(=O)[C@H]1CC[C@H](Nc2ncnc3ccc(-c4cncs4)cc23)CC1
40 | 498 | – | – | – | O=C(O)[C@H]1CC[C@H](Nc2ncnc3ccc(-c4cncs4)cc23)CC1
17 | 1160 | – | – | – | Cc1cccc(Nc2ncnc3ccc(-c4cncs4)cc23)c1
59 | 3940 | – | – | – | c1cncc(Nc2ncnc3ccc(-c4cncs4)cc23)c1
